Laboratory results: the supplement of paper PMC11208160

Assay: recombinant barcode read abundance after kanamycin selection (control-corrected) (log10(CPM+1)); higher = more efficient recombination; sequences stand for … in AGTGCAGAGAAAATCGGCCAGTTTTCTCTGCCTGCAGTCCGCATGCCGT…ATTTATGCAGCGGACTGCCTTTCTCCCAAAGTGATAAACCGGACAGTATCATGGACCGGTTTTCCCGGTAATCCGTATTTGCAAGGTTGGTTTCACT; site = the 11-nt target
How it was run: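 The screen was pooled in E. coli and paired targets with IS621 bridge RNA target-binding loops. Recombination efficiency is taken from barcode counts per million at recombinant junctions, averaged and adjusted against the control. Values, in the form log10(CPM+1), come from duplicate plating on chloramphenicol/ampicillin LB agar or on chloramphenicol/ampicillin/kanamycin with 0.1 mM IPTG.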

Row | Sequence | recombinant barcode read abundance (log10)
1 | AGGCCTCAATGGGTTCTAACCTGTTGCCTAG [AGGCCTCCTAG_LTGcore_AA_RTGcore_CT] (site AGGCCTCCTAG) (LTG core: AA, RTG core: CT) | 0.0132
2 | GGTGCCCGTTGGGTTCTAACCTGTTGCCGAG [GGTGCCCCTCG_LTGcore_GT_RTGcore_CT] (site GGTGCCCCTCG) (LTG core: GT, RTG core: CT) | 0.0597
3 | AGGCCTCCTTGGGTTCTAACCTGTTGCCTCT [AGGCCTCCTAG_LTGcore_CT_RTGcore_AG] (site AGGCCTCCTAG) (LTG core: CT, RTG core: AG) | 0.369
4 | AGGCCTCTCTGGGTTCTAACCTGTTGCCTAG [AGGCCTCCTAG_LTGcore_TC_RTGcore_CT] (site AGGCCTCCTAG) (LTG core: TC, RTG core: CT) | 0.137
5 | TGATACCGGTGGGTTCTAACCTGTTGCGTAG [TGATACCCTAC_LTGcore_GG_RTGcore_CT] (site TGATACCCTAC) (LTG core: GG, RTG core: CT) | 0.108
6 | CGAGCCCTTTGGGTTCTAACCTGTTGCTGAG [CGAGCCCCTCA_LTGcore_TT_RTGcore_CT] (site CGAGCCCCTCA) (LTG core: TT, RTG core: CT) | 0.048
7 | ATGTCCCACTGGGTTCTAACCTGTTGCTCGT [ATGTCCCCTGA_LTGcore_AC_RTGcore_AC] (site ATGTCCCCTGA) (LTG core: AC, RTG core: AC) | 0.183
8 | AGTCTTACCTGGGTTCTAACCTGTTGCCAGG [AGTCTTACTTG_LTGcore_CC_RTGcore_CC] (site AGTCTTACTTG) (LTG core: CC, RTG core: CC) | 0.117
9 | ACGGGACCATGGGTTCTAACCTGTTGCAGTG [ACGGGACCTCT_LTGcore_CA_RTGcore_CA] (site ACGGGACCTCT) (LTG core: CA, RTG core: CA) | 0.127
10 | AAACACATGTGGGTTCTAACCTGTTGCCTCA [AAACACACTAG_LTGcore_TG_RTGcore_TG] (site AAACACACTAG) (LTG core: TG, RTG core: TG) | 0.0962
11 | TCGCGACCTTGGGTTCTAACCTGTTGCCGAC [TCGCGACCTCG_LTGcore_CT_RTGcore_GT] (site TCGCGACCTCG) (LTG core: CT, RTG core: GT) | 0.201
12 | AGTCTTACTTGGGTTCTAACCTGTTGCCACA [AGTCTTACTTG_LTGcore_CT_RTGcore_TG] (site AGTCTTACTTG) (LTG core: CT, RTG core: TG) | 0.032
13 | AGGAGGTGTTGGGTTCTAACCTGTTGCCTAG [AGGAGGTCTAG_LTGcore_GT_RTGcore_CT] (site AGGAGGTCTAG) (LTG core: GT, RTG core: CT) | 0
14 | GAGTCCTTGTGGGTTCTAACCTGTTGCCTAG [GAGTCCTCTAG_LTGcore_TG_RTGcore_CT] (site GAGTCCTCTAG) (LTG core: TG, RTG core: CT) | 0.0483
15 | CGCGCCCCTTGGGTTCTAACCTGTTGCGGGC [CGCGCCCCTCC_LTGcore_CT_RTGcore_GC] (site CGCGCCCCTCC) (LTG core: CT, RTG core: GC) | 0.592
16 | CGCGCCCGGTGGGTTCTAACCTGTTGCGGAG [CGCGCCCCTCC_LTGcore_GG_RTGcore_CT] (site CGCGCCCCTCC) (LTG core: GG, RTG core: CT) | 0.557
17 | AAACAGTGCTGGGTTCTAACCTGTTGCCTAG [AAACAGTCTAG_LTGcore_GC_RTGcore_CT] (site AAACAGTCTAG) (LTG core: GC, RTG core: CT) | 0.16
18 | GAGTCCATTTGGGTTCTAACCTGTTGCGTAG [GAGTCCACTAC_LTGcore_TT_RTGcore_CT] (site GAGTCCACTAC) (LTG core: TT, RTG core: CT) | 0.0725
19 | GAGTCCTGTTGGGTTCTAACCTGTTGCCTAG [GAGTCCTCTAG_LTGcore_GT_RTGcore_CT] (site GAGTCCTCTAG) (LTG core: GT, RTG core: CT) | 0.165
20 | GTCGCCCACTGGGTTCTAACCTGTTGCTAAG [GTCGCCCCTTA_LTGcore_AC_RTGcore_CT] (site GTCGCCCCTTA) (LTG core: AC, RTG core: CT) | 0.309
21 | AAACATGATTGGGTTCTAACCTGTTGCCTAT [AAACATGCTAG_LTGcore_AT_RTGcore_AT] (site AAACATGCTAG) (LTG core: AT, RTG core: AT) | 0.0454
22 | AAACAGTAGTGGGTTCTAACCTGTTGCCTCT [AAACAGTCTAG_LTGcore_AG_RTGcore_AG] (site AAACAGTCTAG) (LTG core: AG, RTG core: AG) | 0.13
23 | GGGAGCCGATGGGTTCTAACCTGTTGCTGTC [GGGAGCCCTCA_LTGcore_GA_RTGcore_GA] (site GGGAGCCCTCA) (LTG core: GA, RTG core: GA) | 0.0745

Row | Sequence | recombinant barcode read abundance (log10)
24 | GGGCGGAATTGGGTTCTAACCTGTTGCGGAG [GGGCGGACTCC_LTGcore_AT_RTGcore_CT] (site GGGCGGACTCC) (LTG core: AT, RTG core: CT) | 0.637
25 | TAGAGGGGTTGGGTTCTAACCTGTTGCGGAG [TAGAGGGCTCC_LTGcore_GT_RTGcore_CT] (site TAGAGGGCTCC) (LTG core: GT, RTG core: CT) | 0.85
26 | CGCGCCCGATGGGTTCTAACCTGTTGCGGTC [CGCGCCCCTCC_LTGcore_GA_RTGcore_GA] (site CGCGCCCCTCC) (LTG core: GA, RTG core: GA) | 0.158
27 | GAGTCCTGGTGGGTTCTAACCTGTTGCCTAG [GAGTCCTCTAG_LTGcore_GG_RTGcore_CT] (site GAGTCCTCTAG) (LTG core: GG, RTG core: CT) | 0.165
28 | AGGCGGGTTTGGGTTCTAACCTGTTGCGGAA [AGGCGGGCTCC_LTGcore_TT_RTGcore_TT] (site AGGCGGGCTCC) (LTG core: TT, RTG core: TT) | 0.299
29 | ACGGGACAGTGGGTTCTAACCTGTTGCAGAG [ACGGGACCTCT_LTGcore_AG_RTGcore_CT] (site ACGGGACCTCT) (LTG core: AG, RTG core: CT) | 0.111
30 | AGGCCTCTATGGGTTCTAACCTGTTGCCTAG [AGGCCTCCTAG_LTGcore_TA_RTGcore_CT] (site AGGCCTCCTAG) (LTG core: TA, RTG core: CT) | 0.0484
31 | GTCGCCCCCTGGGTTCTAACCTGTTGCTAAG [GTCGCCCCTTA_LTGcore_CC_RTGcore_CT] (site GTCGCCCCTTA) (LTG core: CC, RTG core: CT) | 0.771
32 | ATGCTTTAATGGGTTCTAACCTGTTGCCTAG [ATGCTTTCTAG_LTGcore_AA_RTGcore_CT] (site ATGCTTTCTAG) (LTG core: AA, RTG core: CT) | 0.0699
33 | CGGTCCCATTGGGTTCTAACCTGTTGCCAAG [CGGTCCCCTTG_LTGcore_AT_RTGcore_CT] (site CGGTCCCCTTG) (LTG core: AT, RTG core: CT) | 1.07
34 | GAGGCCTCTTGGGTTCTAACCTGTTGCCAAT [GAGGCCTCTTG_LTGcore_CT_RTGcore_AT] (site GAGGCCTCTTG) (LTG core: CT, RTG core: AT) | 0
35 | AAACACAGATGGGTTCTAACCTGTTGCCTAG [AAACACACTAG_LTGcore_GA_RTGcore_CT] (site AAACACACTAG) (LTG core: GA, RTG core: CT) | 0.0116
36 | GCGCGACCTTGGGTTCTAACCTGTTGCTTAG [GCGCGACCTAA_LTGcore_CT_RTGcore_CT] (site GCGCGACCTAA) (LTG core: CT, RTG core: CT) | 0.515
37 | AAACATGCTTGGGTTCTAACCTGTTGCCTAG [AAACATGCTAG_LTGcore_CT_RTGcore_CT] (site AAACATGCTAG) (LTG core: CT, RTG core: CT) | 1.43
38 | GGACACCCCTGGGTTCTAACCTGTTGCCTAG [GGACACCCTAG_LTGcore_CC_RTGcore_CT] (site GGACACCCTAG) (LTG core: CC, RTG core: CT) | 1.3
39 | GCGGGACCTTGGGTTCTAACCTGTTGCCTAA [GCGGGACCTAG_LTGcore_CT_RTGcore_TT] (site GCGGGACCTAG) (LTG core: CT, RTG core: TT) | 1.15
40 | TAAGAATGATGGGTTCTAACCTGTTGCCTAG [TAAGAATCTAG_LTGcore_GA_RTGcore_CT] (site TAAGAATCTAG) (LTG core: GA, RTG core: CT) | 0.0742
41 | GGTGCCCCTTGGGTTCTAACCTGTTGCCGAT [GGTGCCCCTCG_LTGcore_CT_RTGcore_AT] (site GGTGCCCCTCG) (LTG core: CT, RTG core: AT) | 0.19
42 | AGGCGGGGGTGGGTTCTAACCTGTTGCGGAG [AGGCGGGCTCC_LTGcore_GG_RTGcore_CT] (site AGGCGGGCTCC) (LTG core: GG, RTG core: CT) | 0.101
43 | TTATAAAGCTGGGTTCTAACCTGTTGCCTGC [TTATAAACTAG_LTGcore_GC_RTGcore_GC] (site TTATAAACTAG) (LTG core: GC, RTG core: GC) | 0
44 | TGATACCTGTGGGTTCTAACCTGTTGCGTCA [TGATACCCTAC_LTGcore_TG_RTGcore_TG] (site TGATACCCTAC) (LTG core: TG, RTG core: TG) | 0.256
45 | ACGGGACCCTGGGTTCTAACCTGTTGCAGAG [ACGGGACCTCT_LTGcore_CC_RTGcore_CT] (site ACGGGACCTCT) (LTG core: CC, RTG core: CT) | 2.22
